Measurements: US11629171B2, “Beta-hairpin peptidomimetics” (POLYPHOR AG, priority 2017, dated 2023)
≈ marks a conversion by molar mass, not a printed value. Where a SMILES comes first, the peptide text is derived from it. Bridges are numbered along the chain shown (N, C = ends). Roman numbers before positions name the chains, in order. [ ]: non-standard residue; d: D form. Leu(3R-OH) = CC(C)[C@@H](O)[C@H](N)C(=O)O; Pen = CC(C)(S)[C@H](N)C(=O)O; Tle = CC(C)(C)[C@H](N)C(=O)O; dDab = NCC[C@@H](N)C(=O)O; Nle = CCCC[C@H](N)C(=O)O; Dab = NCC[C@H](N)C(=O)O; Dap = NC[C@H](N)C(=O)O

How the values were obtained:
Type in all cases: cell-based
[1] = test system: Acinetobacter baumannii 872842; settings: 872842
Method in brief: (§1)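 Peptides are tested in serial two-fold dilutions against about 10^6 CFU/mL in MH-II broth containing 0.002% P-80 (v/v, final). Plates incubate 18-20 h at 35° C, and the MIC is the lowest peptide level (μg/mL) showing no visible growth.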

[2] = test system: Acinetobacter baumannii DSM 30008; settings: DSM 30008
Method in brief: as §1

[3] = test system: Enterobacter cloacae 848840; settings: 848840
Method in brief: as §1

[4] = test system: Escherichia coli 926415; settings: 926415
Method in brief: as §1

[5] = test system: Escherichia coli ATCC 25922; settings: ATCC 25922
Method in brief: as §1

[6] = test system: Klebsiella pneumoniae 968733; settings: 968733
Method in brief: as §1

[7] = test system: Klebsiella pneumoniae SSI #3010; settings: SSI #3010
Method in brief: as §1

[8] = test system: Pseudomonas aeruginosa ATCC 27853; settings: ATCC 27853
Method in brief: as §1

[9] = test system: human red blood cells (hRBC); experiment: Hemolysis; settings: red cells of human, 1 h, 200
Method in brief: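 hRBC washed 4× in PBS; 200 μg/mL peptide + 20% (v/v) hRBC, 1 h, 37° C, 300 rpm. Spin, supernatant ~7.5-fold diluted, OD540 blank corrected. % hemolysis = OD540 peptide / OD540 Triton X-100 × 100.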

SMILES | MIC [1] [µg/mL] | MIC [2] [µg/mL] | MIC [3] [µg/mL] | MIC [4] [µg/mL] | MIC [5] [µg/mL] | MIC [6] [µg/mL] | MIC [7] [µg/mL] | MIC [8] [µg/mL] | Hemolysis at 200 μg/mL [9] [%]
CC(=O)N[C@H](C(=O)N[C@H](C(=O)N[C@@H](Cc1ccc(O)cc1)C(=O)N[C@H]1CSSC(C)(C)[C@@H](C(=O)N[C@H](C(=O)N[C@H](C(=O)N[C@H](C(N)=O)[C@@H](C)O)[C@@H](C)O)C(C)(C)C)NC(=O)[C@H](Cc2c[nH]c3ccccc23)NC(=O)[C@H](CO)NC(=O)[C@@H](CCN)NC(=O)[C@H](CCC(=O)N[C@@H](CCN)C(=O)N[C@H](C(=O)N[C@@H](CN)C(=O)N[C@H]2CCNC(=O)[C@H]([C@@H](C)O)NC(=O)[C@H](CCN)NC(=O)[C@H](CCN)NC(=O)[C@H](CC(C)C)NC(=O)[C@@H](CC(C)C)NC(=O)[C@H](CCN)NC2=O)[C@@H](C)O)NC1=O)[C@@H](C)O)C(C)C [Ex. 221] (I: Ac-VTYCE[dDab]SW[Pen][Tle]TT-NH2 / II: [Dab]T[Dap][Dab][Dab][dL]L[Dab][Dab]T; disulfide I:4-I:9; amide I:5-II:N; lactam II:4-II:C) | 0.0625 (≈ 0.0253 µM) | 0.0625 (≈ 0.0253 µM) | 0.125 (≈ 0.0506 µM) | 0.125 (≈ 0.0506 µM) | 0.0625 (≈ 0.0253 µM) | 0.25 (≈ 0.101 µM) | 0.125 (≈ 0.0506 µM) | 0.125 (≈ 0.0506 µM) | 2
CC(=O)N[C@H](C(=O)N[C@H](C(=O)N[C@@H](Cc1ccc(O)cc1)C(=O)N[C@H]1CSSC(C)(C)[C@@H](C(=O)N[C@H](C(=O)N[C@H](C(=O)N[C@H](C(N)=O)[C@@H](C)O)[C@@H](C)O)C(C)C)NC(=O)[C@H](Cc2c[nH]c3ccccc23)NC(=O)[C@H](CO)NC(=O)[C@@H](CCN)NC(=O)[C@H](CCC(=O)N[C@@H](CCN)C(=O)N[C@H](C(=O)N[C@@H](CN)C(=O)N[C@H]2CCNC(=O)[C@H]([C@@H](C)O)NC(=O)[C@H](CCN)NC(=O)[C@H](CCN)NC(=O)[C@H](CC(C)C)NC(=O)[C@@H](CC(C)C)NC(=O)[C@H](CCN)NC2=O)[C@@H](C)O)NC1=O)[C@@H](C)O)C(C)C [Ex. 222] (I: Ac-VTYCE[dDab]SW[Pen]VTT-NH2 / II: [Dab]T[Dap][Dab][Dab][dL]L[Dab][Dab]T; disulfide I:4-I:9; amide I:5-II:N; lactam II:4-II:C) | 0.0625 (≈ 0.0254 µM) | 0.0625 (≈ 0.0254 µM) | 0.125 (≈ 0.0509 µM) | 0.25 (≈ 0.102 µM) | 0.03125 (≈ 0.0127 µM) | 0.25 (≈ 0.102 µM) | 0.0625 (≈ 0.0254 µM) | 0.125 (≈ 0.0509 µM) | 1
CCCC[C@H](NC(C)=O)C(=O)N[C@H](C(=O)N[C@@H](Cc1ccc(O)cc1)C(=O)N[C@H]1CSSC[C@@H](C(=O)N[C@H](C(=O)N[C@H](C(=O)N[C@H](C(N)=O)[C@@H](C)O)[C@@H](C)O)[C@@H](C)CC)NC(=O)[C@H](Cc2c[nH]c3ccccc23)NC(=O)[C@H](CO)NC(=O)[C@@H](CCN)NC(=O)[C@H](CCC(=O)N[C@@H](CCN)C(=O)N[C@H](C(=O)N[C@@H](CN)C(=O)N[C@H]2CCNC(=O)[C@H]([C@@H](C)O)NC(=O)[C@H](CCN)NC(=O)[C@H](CCN)NC(=O)[C@H]([C@H](O)C(C)C)NC(=O)[C@@H](CC(C)C)NC(=O)[C@H](CCN)NC2=O)[C@@H](C)O)NC1=O)[C@@H](C)O [Ex. 223] (I: Ac-[Nle]TYCE[dDab]SWCITT-NH2 / II: [Dab]T[Dap][Dab][Dab][dL][Leu(3R-OH)][Dab][Dab]T; disulfide I:4-I:9; amide I:5-II:N; lactam II:4-II:C) | 0.03125 (≈ 0.0126 µM) | 0.03125 (≈ 0.0126 µM) | 0.0625 (≈ 0.0253 µM) | 0.125 (≈ 0.0506 µM) | 0.03125 (≈ 0.0126 µM) | 0.25 (≈ 0.101 µM) | 0.0625 (≈ 0.0253 µM) | 0.125 (≈ 0.0506 µM) | <1
CC(=O)N[C@H](C(=O)N[C@H](C(=O)N[C@@H](Cc1ccc(O)cc1)C(=O)N[C@H]1CSSC(C)(C)[C@@H](C(=O)N[C@H](C(=O)N[C@@H](CO)C(=O)N[C@H](C(N)=O)[C@@H](C)O)C(C)(C)C)NC(=O)[C@H](Cc2c[nH]c3ccccc23)NC(=O)[C@H](CCN)NC(=O)[C@@H](CCN)NC(=O)[C@H](CCC(=O)N[C@@H](CCN)C(=O)N[C@H](C(=O)N[C@@H](CN)C(=O)N[C@H]2CCNC(=O)[C@H]([C@@H](C)O)NC(=O)[C@H](CCN)NC(=O)[C@H](CCN)NC(=O)[C@H]([C@@H](C)O)NC(=O)[C@@H](CC(C)C)NC(=O)[C@H](CCN)NC2=O)[C@@H](C)O)NC1=O)[C@@H](C)O)C(C)C [Ex. 224] (I: Ac-VTYCE[dDab][Dab]W[Pen][Tle]ST-NH2 / II: [Dab]T[Dap][Dab][Dab][dL]T[Dab][Dab]T; disulfide I:4-I:9; amide I:5-II:N; lactam II:4-II:C) | 0.0625 (≈ 0.0254 µM) | 0.0625 (≈ 0.0254 µM) | 0.125 (≈ 0.0509 µM) | 0.125 (≈ 0.0509 µM) | 0.03125 (≈ 0.0127 µM) | 0.25 (≈ 0.102 µM) | 0.125 (≈ 0.0509 µM) | 0.125 (≈ 0.0509 µM) | 1
CC(=O)N[C@H](C(=O)N[C@H](C(=O)N[C@@H](Cc1ccc(O)cc1)C(=O)N[C@H]1CSSC(C)(C)[C@@H](C(=O)N[C@H](C(=O)N[C@@H](CCC(=O)O)C(=O)N[C@H](C(N)=O)[C@@H](C)O)C(C)(C)C)NC(=O)[C@H](Cc2c[nH]c3ccccc23)NC(=O)[C@H](CCN)NC(=O)[C@@H](CCN)NC(=O)[C@H](CCC(=O)N[C@@H](CCN)C(=O)N[C@H](C(=O)N[C@@H](CN)C(=O)N[C@H]2CCNC(=O)[C@H]([C@@H](C)O)NC(=O)[C@H](CCN)NC(=O)[C@H](CCN)NC(=O)[C@H]([C@H](O)C(C)C)NC(=O)[C@@H](CC(C)C)NC(=O)[C@H](CCN)NC2=O)[C@@H](C)O)NC1=O)[C@@H](C)O)C(C)C [Ex. 225] (I: Ac-VTYCE[dDab][Dab]W[Pen][Tle]ET-NH2 / II: [Dab]T[Dap][Dab][Dab][dL][Leu(3R-OH)][Dab][Dab]T; disulfide I:4-I:9; amide I:5-II:N; lactam II:4-II:C) | 0.25 (≈ 0.0989 µM) | 0.125 (≈ 0.0495 µM) | 0.125 (≈ 0.0495 µM) | 0.25 (≈ 0.0989 µM) | 0.0625 (≈ 0.0247 µM) | 1 (≈ 0.396 µM) | 0.0625 (≈ 0.0247 µM) | 0.125 (≈ 0.0495 µM) | <1
CC(=O)N[C@H](C(=O)N[C@@H](CN)C(=O)N[C@@H](Cc1ccc(O)cc1)C(=O)N[C@H]1CSSC[C@@H](C(=O)N[C@H](C(=O)N[C@@H](CC(=O)O)C(=O)N[C@H](C(N)=O)[C@@H](C)O)C(C)(C)C)NC(=O)[C@H](Cc2c[nH]c3ccccc23)NC(=O)[C@H](CO)NC(=O)[C@@H](CCN)NC(=O)[C@H](CCC(=O)N[C@@H](CCN)C(=O)N[C@H](C(=O)N[C@@H](CN)C(=O)N[C@H]2CCNC(=O)[C@H]([C@@H](C)O)NC(=O)[C@H](CCN)NC(=O)[C@H](CCN)NC(=O)[C@H](CC(C)C)NC(=O)[C@@H](CC(C)C)NC(=O)[C@H](CCN)NC2=O)[C@@H](C)O)NC1=O)C(C)C [Ex. 227] (I: Ac-V[Dap]YCE[dDab]SWC[Tle]DT-NH2 / II: [Dab]T[Dap][Dab][Dab][dL]L[Dab][Dab]T; disulfide I:4-I:9; amide I:5-II:N; lactam II:4-II:C) | 0.125 (≈ 0.0512 µM) | 0.03125 (≈ 0.0128 µM) | 0.125 (≈ 0.0512 µM) | 0.125 (≈ 0.0512 µM) | 0.03125 (≈ 0.0128 µM) | 0.5 (≈ 0.205 µM) | 0.125 (≈ 0.0512 µM) | 0.125 (≈ 0.0512 µM) | <1
CC(=O)N[C@@H]1C(=O)N[C@@H]([C@@H](C)O)C(=O)N[C@@H](Cc2ccc(O)cc2)C(=O)N[C@@H](CCN)C(=O)N[C@@H](CCC(=O)N[C@@H](CCN)C(=O)N[C@H](C(=O)N[C@@H](CN)C(=O)N[C@H]2CCNC(=O)[C@H]([C@@H](C)O)NC(=O)[C@H](CCN)NC(=O)[C@H](CCN)NC(=O)[C@H](CC(C)C)NC(=O)[C@@H](CC(C)C)NC(=O)[C@H](CCN)NC2=O)[C@@H](C)O)C(=O)N[C@H](CCN)C(=O)N[C@@H](CCN)C(=O)N[C@@H](Cc2c[nH]c3ccccc23)C(=O)N[C@@H](CCC(=O)O)C(=O)N[C@@H](C(C)(C)C)C(=O)N[C@@H](C)C(=O)N[C@H](C(N)=O)CSSC1(C)C [Ex. 228] (I: Ac-[Pen]TY[Dab]E[dDab][Dab]WE[Tle]AC-NH2 / II: [Dab]T[Dap][Dab][Dab][dL]L[Dab][Dab]T; disulfide I:1-I:12; amide I:5-II:N; lactam II:4-II:C) | 4 (≈ 1.61 µM) | 1 (≈ 0.403 µM) | 8 (≈ 3.22 µM) | 1 (≈ 0.403 µM) | 0.5 (≈ 0.201 µM) | 1 (≈ 0.403 µM) | 0.25 (≈ 0.101 µM) | 0.25 (≈ 0.101 µM) | <1
